The conditions of data set [1]: human plasma, after oral administration; cited from earlier work.
Data set [2] in a line: Solubility of brexanolone by visual assessment of dissolution in various solvents. Format: physicochemical. As to conditions: for solubility / solubility at 1 h: thermodynamic from solid; for solubility at 1 h: 40° C. for 1 h. How it is done: Solubility of the supplied brexanolone was determined by visual assessment of dissolution in various solvents at RT (˜22° C.) and 40° C. Aliquots of solvent were added to a fixed amount of brexanolone (˜10 mg) at room temperature until the dissolution point or a maximum volume of 1.8 mL was reached. All samples were then heated to 40° C. for 1 h and dissolution was observed. As shown in Error!

Values after ≈ are worked out from the molar mass of the structure shown. Read-outs that look alike come from different tables or passages of the source.

For `CC(=O)[C@H]1CC[C@H]2[C@@H]3CC[C@H]4C[C@](C)(O)CC[C@]4(C)[C@H]3CC[C@]12C` [Ganaxolone, ganaxolone], the half-life result in data set [1] was “approximately 20 hours”.

Turning to `CC(=O)[C@H]1CC[C@H]2[C@@H]3CC[C@H]4C[C@H](O)CC[C@]4(C)[C@H]3CC[C@]12C` [brexanolone], the solubility in data set [2] (22 °C, organic solvent or mixture, RT, in MeCN, IPE, MTBE, IPA, MeOH, IPA:water (9:1, v:v), toluene, DMSO, EtOAc (span over these solvents), read-out: moderate solubility at RT) is 6 to 52 mg/mL (≈ 18.8 to 163 mM); in data set [2] (22 °C, organic solvent or mixture, RT, in THF and DCM, read-out: high solubility at RT) it was above 96 mg/mL; in data set [2] (organic solvent or mixture, solvent 2-Propanol (IPA), RT (~22° C.), read-out: Solubility at RT) it was 19 to 49 mg/mL (≈ 59.7 to 154 mM); in data set [2] (organic solvent or mixture, solvent 2-Propanol:water (9:1, v:v), RT (~22° C.), read-out: Solubility at RT), 20 to 51 mg/mL (≈ 62.8 to 160 mM); in data set [2] (organic solvent or mixture, solvent Acetonitrile (MeCN), RT (~22° C.), read-out: Solubility at RT), 6 to 10 mg/mL (≈ 18.8 to 31.4 mM); in data set [2] (organic solvent or mixture, solvent Dichloromethane (DCM), RT (~22° C.), read-out: Solubility at RT), 108 to 432 mg/mL (≈ 339 to 1360 mM). Moreover, the solubility in data set [2] (organic solvent or mixture, solvent Dimethyl sulfoxide (DMSO), RT (~22° C.), read-out: Solubility at RT) fell in the range of 20 to 49 mg/mL (≈ 62.8 to 154 mM); in data set [2] (organic solvent or mixture, solvent Ethyl Acetate (EtOAc), RT (~22° C.), read-out: Solubility at RT) it was 21 to 52 mg/mL (≈ 65.9 to 163 mM); in data set [2] (organic solvent or mixture, solvent Isopropyl ether (IPE), RT (~22° C.), read-out: Solubility at RT) it was 6 to 11 mg/mL (≈ 18.8 to 34.5 mM); in data set [2] (organic solvent or mixture, solvent Methanol (MeOH), RT (~22° C.), read-out: Solubility at RT), 19 to 49 mg/mL (≈ 59.7 to 154 mM); in data set [2] (organic solvent or mixture, solvent Methyl t-butyl ether (MTBE), RT (~22° C.), read-out: Solubility at RT), 10 to 20 mg/mL (≈ 31.4 to 62.8 mM); in data set [2] (organic solvent or mixture, solvent Tetrahydrofuran (THF), RT (~22° C.), read-out: Solubility at RT), 96 to 384 mg/mL (≈ 301 to 1210 mM). For the same compound, the solubility in data set [2] (organic solvent or mixture, solvent Toluene, RT (~22° C.), read-out: Solubility at RT) was 20 to 50 mg/mL (≈ 62.8 to 157 mM); in data set [2] (solvent Water, RT (~22° C.), read-out: Solubility at RT), below 6 mg/mL. Besides, the solubility at 1 h was above 19 mg/mL in data set [2] (organic solvent or mixture, solvent 2-Propanol (IPA)); above 20 mg/mL in data set [2] (organic solvent or mixture, solvent 2-Propanol:water (9:1, v:v)); above 6 mg/mL in data set [2] (organic solvent or mixture, solvent Acetonitrile (MeCN)); above 108 mg/mL in data set [2] (organic solvent or mixture, solvent Dichloromethane (DCM)); above 20 mg/mL in data set [2] (organic solvent or mixture, solvent Dimethyl sulfoxide (DMSO)); above 21 mg/mL in data set [2] (organic solvent or mixture, solvent Ethyl Acetate (EtOAc)). For the same compound, the solubility at 1 h is above 6 mg/mL in data set [2] (organic solvent or mixture, solvent Isopropyl ether (IPE)); above 19 mg/mL in data set [2] (organic solvent or mixture, solvent Methanol (MeOH)); above 10 mg/mL in data set [2] (organic solvent or mixture, solvent Methyl t-butyl ether (MTBE)); above 96 mg/mL in data set [2] (organic solvent or mixture, solvent Tetrahydrofuran (THF)); above 20 mg/mL in data set [2] (organic solvent or mixture, solvent Toluene); below 6 mg/mL in data set [2] (solvent Water). For the same compound, in data set [2] (solvent Water, RT (~22° C.)), the “Solubility at RT” value was below 6 mg/mL.

The values are drawn from patent US12370200B2, “Pharmaceutical composition containing brexanolone, ganaxolone, or zuranolone, and use thereof” (Brii Biosciences, Inc., priority 2019, dated 2025).
